In patent US20250230193A1, “CYCLIC COMPOUND HAVING SELECTIVE KRAS INHIBITORY EFFECT ON HRAS AND NRAS” (CHUGAI SEIYAKU KABUSHIKI KAISHA, priority 2022, published 2025):

How the values were obtained:
[1] = target: GDP-bound NRAS wild-type protein (Homo sapiens, UniProt P01111); assay: Binding to NRAS by surface plasmon resonance (SPR), Single Cycle Kinetics; conditions: for NRAS/KRAS (ratio of KD value with respect to NRAS to KD value with respect to KRAS) / NRAS/KRAS (ratio of KD value for NRAS to KD value for KRAS): GDP-bound NRAS wild-type vs GDP-bound KRAS wild-type
Chain of GDP-bound NRAS wild-type protein (P01111 whole entry): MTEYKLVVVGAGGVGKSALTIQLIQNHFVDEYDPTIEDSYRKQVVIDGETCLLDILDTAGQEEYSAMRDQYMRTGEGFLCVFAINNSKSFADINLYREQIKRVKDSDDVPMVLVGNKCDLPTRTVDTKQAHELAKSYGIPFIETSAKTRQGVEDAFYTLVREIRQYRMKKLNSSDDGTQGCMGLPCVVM

[2] = target: GDP-bound HRAS wild-type protein (Homo sapiens, UniProt P01112); assay: Binding to HRAS by surface plasmon resonance (SPR), Single Cycle Kinetics; conditions: for HRAS/KRAS (ratio of KD value with respect to HRAS to KD value with respect to KRAS) / HRAS/KRAS (ratio of KD value for HRAS to KD value for KRAS): GDP-bound HRAS wild-type vs GDP-bound KRAS wild-type
Chain of GDP-bound HRAS wild-type protein (P01112 whole entry): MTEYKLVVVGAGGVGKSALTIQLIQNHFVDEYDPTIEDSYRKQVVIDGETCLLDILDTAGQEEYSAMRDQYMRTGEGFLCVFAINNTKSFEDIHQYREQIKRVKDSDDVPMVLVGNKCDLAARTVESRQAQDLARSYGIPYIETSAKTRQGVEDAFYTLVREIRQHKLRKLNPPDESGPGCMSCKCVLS

[3] = SPR, GDP-bound wild-type proteins

CCOC[C@H]1C(=O)N[C@@H]([C@@H](C)CC)C(=O)N2CCC[C@H]2C(=O)N(C)[C@H]2C/C=C\CCN(C2=O)[C@@H](Cc2ccc(C)cc2)C(=O)N(C)CC(=O)N[C@@H](CCc2cc(F)c(C(F)(F)F)c(F)c2)C(=O)N2C[C@H](OCC)C[C@H]2C(=O)NC2(CC(C)(C)C2)C(=O)N(C)[C@@H](C2CCCC2)C(=O)N(C)[C@H](C(=O)N(C)CC)CC(=O)N1C [PP2428]
NRAS/KRAS (ratio of KD value with respect to NRAS to KD value with respect to KRAS) ([1]; SPR): A (a compound having 10 or more and less than 20 is denoted as A) | HRAS/KRAS (ratio of KD value with respect to HRAS to KD value with respect to KRAS) ([2]; SPR): A (a compound having 10 or more and less than 20 is denoted as A)

CCCO[C@@H]1C[C@H]2C(=O)NC3(CC(C)(C)C3)C(=O)N(C)[C@@H](C3CCCC3)C(=O)N(C)[C@H](C(=O)N(C)C)CC(=O)N(C)[C@H]3CCCCc4ccc(cc4)C[C@@H](C(=O)N(C)CC(=O)N[C@@H](CCc4ccc(Cl)c(Cl)c4)C(=O)N2C1)N1CC/C=C\C[C@@H](C1=O)N(C)C(=O)CN(C)C(=O)[C@H]([C@@H](C)CC)NC3=O [PP3092]
NRAS/KRAS (ratio of KD value with respect to GDP-bound NRAS wild-type protein to KD value with respect to KRAS) [1, 3]: A (a compound having 10 or more and less than 20 is denoted as A) | HRAS/KRAS (ratio of KD value with respect to GDP-bound HRAS wild-type protein to KD value with respect to KRAS) [2, 3]: A (a compound having 10 or more and less than 20 is denoted as A)

CCO[C@@H]1C[C@H]2C(=O)NC3(CC(C)(C)C3)C(=O)N(C)[C@@H](C(CC)CC)C(=O)N(C)[C@H](C(=O)N3CCCC3)CC(=O)N(C)[C@@H](CC)C(=O)N[C@@H]([C@@H](C)CC)C(=O)N(C)CC(=O)N(C)[C@H]3C/C=C\CCN(C3=O)[C@@H](Cc3ccc(C)cc3)C(=O)N(C)CC(=O)N[C@@H](CCc3ccc(C(F)(F)F)c(OC)c3)C(=O)N2C1 [PP2171]
NRAS/KRAS (ratio of KD value with respect to NRAS to KD value with respect to KRAS) ([1]; SPR): A (a compound having 10 or more and less than 20 is denoted as A) | HRAS/KRAS (ratio of KD value with respect to HRAS to KD value with respect to KRAS) ([2]; SPR): A (a compound having 10 or more and less than 20 is denoted as A)

CCO[C@@H]1C[C@H]2C(=O)NC3(CCC3)C(=O)N(C)[C@@H](C(CC)CC)C(=O)N3CCC[C@@H]3CC(=O)N(C)[C@@H](CC3CC3)C(=O)N[C@@H]([C@@H](C)CC)C(=O)N(C)CC(=O)N(C)[C@H]3C/C=C\CCN(C3=O)[C@@H](Cc3ccc(C(F)(F)F)cc3)C(=O)N(C)CC(=O)N[C@@H](CCc3cc(F)c(C(F)(F)F)c(F)c3)C(=O)N2C1 [PP1612]
NRAS/KRAS (ratio of KD value for NRAS to KD value for KRAS) ([1]; KD ratio, SPR): B (a compound having 3 or more and less than 10 is denoted as B) | HRAS/KRAS (ratio of KD value for HRAS to KD value for KRAS) ([2]; KD ratio, SPR): B (a compound having 3 or more and less than 10 is denoted as B)

CCO[C@@H]1C[C@H]2C(=O)NC3(CC(C)(C)C3)C(=O)N(C)[C@@H](C3CCCC3)C(=O)N(C)[C@H](C(=O)N(C)C)CC(=O)N(C)[C@@H](C)C(=O)N[C@@H]([C@@H](C)CC)C(=O)N(C)CC(=O)N(C)[C@H]3C/C=C\CCN(C3=O)[C@@H](Cc3ccc(C(F)(F)F)cc3)C(=O)N(C)CC(=O)N[C@@H](CCc3ccc(C(F)(F)F)c(OC)c3)C(=O)N2C1 [PP1674]
NRAS/KRAS (ratio of KD value for NRAS to KD value for KRAS) ([1]; KD ratio, SPR): A (a compound having 10 or more and less than 20 is denoted as A) | HRAS/KRAS (ratio of KD value for HRAS to KD value for KRAS) ([2]; KD ratio, SPR): A (a compound having 10 or more and less than 20 is denoted as A)

CC[C@H](C)[C@@H]1NC(=O)[C@H](CC(C)C)N(C)C(=O)C[C@@H](C(=O)N2CCOCC2)N(C)C(=O)[C@H](C2CCCC2)N(C)C(=O)C2(CCC2)NC(=O)[C@@H]2C[C@@H](C(F)(F)F)CN2C(=O)[C@H](CCc2cc(F)c(C(F)(F)F)c(F)c2)NC(=O)CN(C)C(=O)[C@H](Cc2ccc(C(F)(F)F)cc2)N2CCCC[C@@H](C2=O)N(C)C(=O)CN(C)C1=O [PP0809]
NRAS/KRAS (ratio of KD value with respect to GDP-bound NRAS wild-type protein to KD value with respect to KRAS) ([1]; SPR): B (a compound having 3 or more and less than 10 is denoted as B) | HRAS/KRAS (ratio of KD value with respect to GDP-bound HRAS wild-type protein to KD value with respect to KRAS) ([2]; SPR): B (a compound having 3 or more and less than 10 is denoted as B)

CCO[C@@H]1C[C@H]2C(=O)NC3(CCC3)C(=O)N(C)[C@@H](C3CCCC3)C(=O)N(C)[C@H](C(=O)N(C)C)CC(=O)N(C)[C@@H](Cc3ccc(C)cc3)C(=O)N[C@@H]([C@@H](C)CC)C(=O)N(C)CC(=O)N(C)[C@H]3CCCCCN(C3=O)[C@@H](Cc3ccc(C(F)(F)F)cc3)C(=O)N(C)CC(=O)N[C@@H](CCc3cc(F)c(C(F)(F)F)c(F)c3)C(=O)N2C1 [PP0943]
NRAS/KRAS (ratio of KD value with respect to NRAS to KD value with respect to KRAS) ([1]; KD ratio, SPR): B (a compound having 3 or more and less than 10 is denoted as B) | HRAS/KRAS (ratio of KD value with respect to HRAS to KD value with respect to KRAS) ([2]; KD ratio, SPR): B (a compound having 3 or more and less than 10 is denoted as B)

CCO[C@@H]1C[C@H]2C(=O)NC3(CC(C)(C)C3)C(=O)N(C)[C@@H](C3CCCC3)C(=O)N(C)[C@H](C(=O)N(C)C)CC(=O)N(C)[C@@H](C)C(=O)N[C@@H]([C@@H](C)CC)C(=O)N(C)CC(=O)N(C)[C@H]3C/C=C\CCN(C3=O)[C@@H](Cc3ccc(C(F)(F)F)cc3)C(=O)N(C)CC(=O)N[C@@H](CCc3cc(F)c(C(F)(F)F)c(F)c3)C(=O)N2C1 [PP1641]
NRAS/KRAS (ratio of KD value for NRAS to KD value for KRAS) ([1]; KD ratio, SPR): A (a compound having 10 or more and less than 20 is denoted as A) | HRAS/KRAS (ratio of KD value for HRAS to KD value for KRAS) ([2]; KD ratio, SPR): A (a compound having 10 or more and less than 20 is denoted as A)

CCC(CC)[C@H]1C(=O)N(C)[C@H](C(=O)N(C)C)CC(=O)N(C)[C@@H](COC)C(=O)N[C@@H]([C@@H](C)CC)C(=O)N(C2CC2)CC(=O)N(C)[C@H]2C/C=C\CCN(C2=O)[C@@H](Cc2ccc(C)cc2)C(=O)N(C)CC(=O)N[C@@H](CCc2cc(F)c(C(F)(F)F)c(F)c2)C(=O)N2C[C@H](OC(C)C)C[C@H]2C(=O)NC2(CC(C)(C)C2)C(=O)N1C [PP2572]
NRAS/KRAS (ratio of KD value with respect to GDP-bound NRAS wild-type protein to KD value with respect to KRAS) ([1]; class symbols): A (a compound having 10 or more and less than 20 is denoted as A) | HRAS/KRAS (ratio of KD value with respect to GDP-bound HRAS wild-type protein to KD value with respect to KRAS) ([2]; class symbols): A (a compound having 10 or more and less than 20 is denoted as A)

C=CC[C@H]1C(=O)N[C@@H]([C@@H](C)CC)C(=O)N(C)CC(=O)N(C)[C@H]2C/C=C\CCN(C2=O)[C@@H](Cc2ccc(C(F)(F)F)cc2)C(=O)N(C)CC(=O)N[C@@H](CCc2cc(F)c(C(F)(F)F)c(F)c2)C(=O)N2C[C@H](OCC)C[C@H]2C(=O)NC2(CCC2)C(=O)N(C)[C@@H](C2CCCC2)C(=O)N(C)[C@H](C(=O)N(C)C)CC(=O)N1C [PP1114]
NRAS/KRAS (ratio of KD value with respect to NRAS to KD value with respect to KRAS) ([1]; KD ratio, SPR): A (a compound having 10 or more and less than 20 is denoted as A) | HRAS/KRAS (ratio of KD value with respect to HRAS to KD value with respect to KRAS) ([2]; KD ratio, SPR): A (a compound having 10 or more and less than 20 is denoted as A)

CCO[C@@H]1C[C@H]2C(=O)NC3(CCC3)C(=O)N(C)[C@@H](C3CCCC3)C(=O)N(C)[C@H](C(=O)N(C)CCOC)CC(=O)N(C)[C@@H](CC)C(=O)N[C@@H]([C@@H](C)CC)C(=O)N(C)CC(=O)N(C)[C@H]3C/C=C\CCN(C3=O)[C@@H](Cc3ccc(C(F)(F)F)cc3)C(=O)N(C)CC(=O)N[C@@H](CCc3ccc4sccc4c3)C(=O)N2C1 [PP1322]
NRAS/KRAS (ratio of KD value for GDP-bound NRAS wild-type protein to KD value for KRAS) ([1]; SPR, KD ratio class): A (a compound having 10 or more and less than 20 is denoted as A) | HRAS/KRAS (ratio of KD value for GDP-bound HRAS wild-type protein to KD value for KRAS) ([2]; SPR, KD ratio class): A (a compound having 10 or more and less than 20 is denoted as A)

CC[C@H](C)[C@@H]1NC(=O)[C@H](COC)N(C)C(=O)C[C@@H](C(=O)N(C)C)N(C)C(=O)[C@H](C2CCCC2)N(C)C(=O)C2(CC(C)(C)C2)NC(=O)[C@@H]2CC(F)(F)CN2C(=O)[C@H](CCc2cc(F)c(C(F)(F)F)c(F)c2)NC(=O)CN(C)C(=O)[C@H](Cc2ccc(C(F)(F)F)cc2)N2CC/C=C\C[C@@H](C2=O)N(C)C(=O)CN(C)C1=O [PP1717]
NRAS/KRAS (ratio of KD value for NRAS to KD value for KRAS) ([1]; KD ratio, SPR): A (a compound having 10 or more and less than 20 is denoted as A) | HRAS/KRAS (ratio of KD value for HRAS to KD value for KRAS) ([2]; KD ratio, SPR): A (a compound having 10 or more and less than 20 is denoted as A)

CCO[C@@H]1C[C@H]2C(=O)NC3(CC(C)(C)C3)C(=O)N(C)[C@@H](CC3CCC3)C(=O)N(C)[C@H](C(=O)N(C)C)CC(=O)N(C)[C@@H](COC)C(=O)N[C@@H]([C@@H](C)CC)C(=O)N(C3CC3)CC(=O)N(C)[C@H]3C/C=C\CCN(C3=O)[C@@H](Cc3ccc(C(F)(F)F)cc3)C(=O)N(C)CC(=O)N[C@@H](CCc3ccc(Cl)c(Cl)c3)C(=O)N2C1 [PP2821]
NRAS/KRAS (ratio of KD value with respect to GDP-bound NRAS wild-type protein to KD value with respect to KRAS) ([1]; class symbols): A (a compound having 10 or more and less than 20 is denoted as A) | HRAS/KRAS (ratio of KD value with respect to GDP-bound HRAS wild-type protein to KD value with respect to KRAS) ([2]; class symbols): A (a compound having 10 or more and less than 20 is denoted as A)

CC[C@H](C)[C@@H]1NC(=O)[C@H](CC(C)C)N(C)C(=O)C[C@@H](C(=O)N2CCOCC2)N(C)C(=O)[C@H](C2CCCC2)N(C)C(=O)C2(CCC2)NC(=O)[C@@H]2C[C@@H](OCC3CCCC3)CN2C(=O)[C@H](CCc2cc(F)c(C(F)(F)F)c(F)c2)NC(=O)CN(C)C(=O)[C@H](Cc2ccc(C(F)(F)F)cc2)N2CCCC[C@@H](C2=O)N(C)C(=O)CN(C)C1=O [PP1015]
NRAS/KRAS (ratio of KD value with respect to NRAS to KD value with respect to KRAS) ([1]; KD ratio, SPR): C (A compound having a KD ratio of 0.1 or more and less than 3 is denoted as C) | HRAS/KRAS (ratio of KD value with respect to HRAS to KD value with respect to KRAS) ([2]; KD ratio, SPR): C (A compound having a KD ratio of 0.1 or more and less than 3 is denoted as C)

CC[C@H](C)[C@@H]1NC(=O)[C@H](C2CCC2)N(C)C(=O)C[C@@H](C(=O)N(C)CC)N(C)C(=O)[C@H](C2CCCC2)N(C)C(=O)C2(CC(C)(C)C2)NC(=O)[C@@H]2C[C@H](C)CN2C(=O)[C@H](CCc2ccc(C(F)(F)F)c(OC)c2)NC(=O)CN(C)C(=O)[C@H](Cc2ccc(C(F)(F)F)cc2)N2CC/C=C\C[C@@H](C2=O)N(C)C(=O)CN(C)C1=O [PP2009]
NRAS/KRAS (ratio of KD value for NRAS to KD value for KRAS) ([1]; KD ratio, SPR): A (a compound having 10 or more and less than 20 is denoted as A) | HRAS/KRAS (ratio of KD value for HRAS to KD value for KRAS) ([2]; KD ratio, SPR): A (a compound having 10 or more and less than 20 is denoted as A)
